In the supplement of paper PMC8671470:
Counter-ions that a name gives are not always drawn.

These compounds were tested on Mono-Mac-6 (assay: cell viability (% survival relative to DMSO control); higher = less cytotoxic). Conditions: drug1 concentration 500 nM; drug2 concentration 50 nM; 72 h.
Description: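 8x8 drug-combination matrices (0–5000 nM; rosiglitazone and lestaurtinib 0–1000 nM) were run in Mono-Mac-6 cells for 72 h with CellTiter-Glo read-out. Survival is normalised to DMSO and 10 µM bortezomib and clipped at 100%.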

| SMILES | cell viability [%] |
| --- | --- |
| O=C(O)CC[N+](=O)[O-] [3-nitropropionic acid] + CCn1c(=Cc2cccc[n+]2CC)sc(=C2Sc3ccccc3N2C)c1=O [MKT 077] | 96.5 |
| CCn1c(=Cc2cccc[n+]2CC)sc(=C2Sc3ccccc3N2C)c1=O [MKT 077] + CN(C)CCNC(=O)c1cccn2c(=O)c3cc4ccccc4cc3nc12 [Bmh-21] | 87.1 |
| CN(CCOc1ccc(Cc2sc(O)nc2O)cc1)c1ccccn1 [Rosiglitazone] + CC(C)(Cc1ccccc1)NCC(O)c1ccc(O)c(NS(C)(=O)=O)c1 [Zinterol hydrochloride] | 29.2 |
| CN(CCOc1ccc(Cc2sc(O)nc2O)cc1)c1ccccn1 [Rosiglitazone] + c1cc(-c2cnn3cc(-c4ccc(OCCN5CCCCC5)cc4)cnc23)ccn1 [Dorsomorphin] | 47.2 |

Same assay, conditions: drug1 concentration 500 nM; drug2 concentration 100 nM; 72 h

| SMILES | cell viability [%] |
| --- | --- |
| O=C(O)CC[N+](=O)[O-] [3-nitropropionic acid] + CCn1c(=Cc2cccc[n+]2CC)sc(=C2Sc3ccccc3N2C)c1=O [MKT 077] | > 100 |
| CCn1c(=Cc2cccc[n+]2CC)sc(=C2Sc3ccccc3N2C)c1=O [MKT 077] + CN(C)CCNC(=O)c1cccn2c(=O)c3cc4ccccc4cc3nc12 [Bmh-21] | > 100 |
| CN(CCOc1ccc(Cc2sc(O)nc2O)cc1)c1ccccn1 [Rosiglitazone] + CC(C)(Cc1ccccc1)NCC(O)c1ccc(O)c(NS(C)(=O)=O)c1 [Zinterol hydrochloride] | 28 |
| CN(CCOc1ccc(Cc2sc(O)nc2O)cc1)c1ccccn1 [Rosiglitazone] + c1cc(-c2cnn3cc(-c4ccc(OCCN5CCCCC5)cc4)cnc23)ccn1 [Dorsomorphin] | 28.7 |

Same assay, conditions: drug1 concentration 500 nM; drug2 concentration 500 nM; 72 h

| SMILES | cell viability [%] |
| --- | --- |
| O=C(O)CC[N+](=O)[O-] [3-nitropropionic acid] + CCn1c(=Cc2cccc[n+]2CC)sc(=C2Sc3ccccc3N2C)c1=O [MKT 077] | > 100 |
| CCn1c(=Cc2cccc[n+]2CC)sc(=C2Sc3ccccc3N2C)c1=O [MKT 077] + CN(C)CCNC(=O)c1cccn2c(=O)c3cc4ccccc4cc3nc12 [Bmh-21] | 84.3 |
| CN(CCOc1ccc(Cc2sc(O)nc2O)cc1)c1ccccn1 [Rosiglitazone] + CC(C)(Cc1ccccc1)NCC(O)c1ccc(O)c(NS(C)(=O)=O)c1 [Zinterol hydrochloride] | 28.4 |
| CN(CCOc1ccc(Cc2sc(O)nc2O)cc1)c1ccccn1 [Rosiglitazone] + c1cc(-c2cnn3cc(-c4ccc(OCCN5CCCCC5)cc4)cnc23)ccn1 [Dorsomorphin] | 22.8 |

Same assay, conditions: drug1 concentration 500 nM; drug2 concentration 1000 nM; 72 h

| SMILES | cell viability [%] |
| --- | --- |
| O=C(O)CC[N+](=O)[O-] [3-nitropropionic acid] + CCn1c(=Cc2cccc[n+]2CC)sc(=C2Sc3ccccc3N2C)c1=O [MKT 077] | 96.7 |
| CCn1c(=Cc2cccc[n+]2CC)sc(=C2Sc3ccccc3N2C)c1=O [MKT 077] + CN(C)CCNC(=O)c1cccn2c(=O)c3cc4ccccc4cc3nc12 [Bmh-21] | 76.2 |
| CN(CCOc1ccc(Cc2sc(O)nc2O)cc1)c1ccccn1 [Rosiglitazone] + CC(C)(Cc1ccccc1)NCC(O)c1ccc(O)c(NS(C)(=O)=O)c1 [Zinterol hydrochloride] | 20.5 |
| CN(CCOc1ccc(Cc2sc(O)nc2O)cc1)c1ccccn1 [Rosiglitazone] + c1cc(-c2cnn3cc(-c4ccc(OCCN5CCCCC5)cc4)cnc23)ccn1 [Dorsomorphin] | 11.6 |

Same assay, conditions: drug1 concentration 500 nM; drug2 concentration 5000 nM; 72 h

| SMILES | cell viability [%] |
| --- | --- |
| O=C(O)CC[N+](=O)[O-] [3-nitropropionic acid] + CCn1c(=Cc2cccc[n+]2CC)sc(=C2Sc3ccccc3N2C)c1=O [MKT 077] | 63.8 |
| CCn1c(=Cc2cccc[n+]2CC)sc(=C2Sc3ccccc3N2C)c1=O [MKT 077] + CN(C)CCNC(=O)c1cccn2c(=O)c3cc4ccccc4cc3nc12 [Bmh-21] | 65.1 |
| CN(CCOc1ccc(Cc2sc(O)nc2O)cc1)c1ccccn1 [Rosiglitazone] + CC(C)(Cc1ccccc1)NCC(O)c1ccc(O)c(NS(C)(=O)=O)c1 [Zinterol hydrochloride] | 22 |
| CN(CCOc1ccc(Cc2sc(O)nc2O)cc1)c1ccccn1 [Rosiglitazone] + c1cc(-c2cnn3cc(-c4ccc(OCCN5CCCCC5)cc4)cnc23)ccn1 [Dorsomorphin] | 5.66 |

Same assay, conditions: drug1 concentration 1000 nM; drug2 concentration 5 nM; 72 h

| SMILES | cell viability [%] |
| --- | --- |
| O=C(O)CC[N+](=O)[O-] [3-nitropropionic acid] + CCn1c(=Cc2cccc[n+]2CC)sc(=C2Sc3ccccc3N2C)c1=O [MKT 077] | > 100 |
| CCn1c(=Cc2cccc[n+]2CC)sc(=C2Sc3ccccc3N2C)c1=O [MKT 077] + CN(C)CCNC(=O)c1cccn2c(=O)c3cc4ccccc4cc3nc12 [Bmh-21] | > 100 |
| CN(CCOc1ccc(Cc2sc(O)nc2O)cc1)c1ccccn1 [Rosiglitazone] + CC(C)(Cc1ccccc1)NCC(O)c1ccc(O)c(NS(C)(=O)=O)c1 [Zinterol hydrochloride] | 21.7 |
| CN(CCOc1ccc(Cc2sc(O)nc2O)cc1)c1ccccn1 [Rosiglitazone] + c1cc(-c2cnn3cc(-c4ccc(OCCN5CCCCC5)cc4)cnc23)ccn1 [Dorsomorphin] | 33.8 |

Same assay, conditions: drug1 concentration 1000 nM; drug2 concentration 10 nM; 72 h

| SMILES | cell viability [%] |
| --- | --- |
| O=C(O)CC[N+](=O)[O-] [3-nitropropionic acid] + CCn1c(=Cc2cccc[n+]2CC)sc(=C2Sc3ccccc3N2C)c1=O [MKT 077] | > 100 |
| CCn1c(=Cc2cccc[n+]2CC)sc(=C2Sc3ccccc3N2C)c1=O [MKT 077] + CN(C)CCNC(=O)c1cccn2c(=O)c3cc4ccccc4cc3nc12 [Bmh-21] | 78.2 |
| CN(CCOc1ccc(Cc2sc(O)nc2O)cc1)c1ccccn1 [Rosiglitazone] + CC(C)(Cc1ccccc1)NCC(O)c1ccc(O)c(NS(C)(=O)=O)c1 [Zinterol hydrochloride] | 24.5 |
| CN(CCOc1ccc(Cc2sc(O)nc2O)cc1)c1ccccn1 [Rosiglitazone] + c1cc(-c2cnn3cc(-c4ccc(OCCN5CCCCC5)cc4)cnc23)ccn1 [Dorsomorphin] | 32.6 |

Same assay, conditions: drug1 concentration 1000 nM; drug2 concentration 50 nM; 72 h

| SMILES | cell viability [%] |
| --- | --- |
| O=C(O)CC[N+](=O)[O-] [3-nitropropionic acid] + CCn1c(=Cc2cccc[n+]2CC)sc(=C2Sc3ccccc3N2C)c1=O [MKT 077] | 86 |
| CCn1c(=Cc2cccc[n+]2CC)sc(=C2Sc3ccccc3N2C)c1=O [MKT 077] + CN(C)CCNC(=O)c1cccn2c(=O)c3cc4ccccc4cc3nc12 [Bmh-21] | > 100 |
| CN(CCOc1ccc(Cc2sc(O)nc2O)cc1)c1ccccn1 [Rosiglitazone] + CC(C)(Cc1ccccc1)NCC(O)c1ccc(O)c(NS(C)(=O)=O)c1 [Zinterol hydrochloride] | 28.8 |
| CN(CCOc1ccc(Cc2sc(O)nc2O)cc1)c1ccccn1 [Rosiglitazone] + c1cc(-c2cnn3cc(-c4ccc(OCCN5CCCCC5)cc4)cnc23)ccn1 [Dorsomorphin] | 33.5 |

Same assay, conditions: drug1 concentration 1000 nM; drug2 concentration 100 nM; 72 h

| SMILES | cell viability [%] |
| --- | --- |
| O=C(O)CC[N+](=O)[O-] [3-nitropropionic acid] + CCn1c(=Cc2cccc[n+]2CC)sc(=C2Sc3ccccc3N2C)c1=O [MKT 077] | > 100 |
| CCn1c(=Cc2cccc[n+]2CC)sc(=C2Sc3ccccc3N2C)c1=O [MKT 077] + CN(C)CCNC(=O)c1cccn2c(=O)c3cc4ccccc4cc3nc12 [Bmh-21] | > 100 |
| CN(CCOc1ccc(Cc2sc(O)nc2O)cc1)c1ccccn1 [Rosiglitazone] + CC(C)(Cc1ccccc1)NCC(O)c1ccc(O)c(NS(C)(=O)=O)c1 [Zinterol hydrochloride] | 18.9 |
| CN(CCOc1ccc(Cc2sc(O)nc2O)cc1)c1ccccn1 [Rosiglitazone] + c1cc(-c2cnn3cc(-c4ccc(OCCN5CCCCC5)cc4)cnc23)ccn1 [Dorsomorphin] | 31.1 |

Same assay, conditions: drug1 concentration 1000 nM; drug2 concentration 500 nM; 72 h

| SMILES | cell viability [%] |
| --- | --- |
| O=C(O)CC[N+](=O)[O-] [3-nitropropionic acid] + CCn1c(=Cc2cccc[n+]2CC)sc(=C2Sc3ccccc3N2C)c1=O [MKT 077] | 84.4 |
